Test results: patent US11691970B2, “Pyrazolopyridinone compounds” (Janssen Pharmaceutica NV, priority 2017, dated 2023)

Legend:
[1] = target: T1, human FGFR3 wild type enzyme (cytoplasmic domain) (Homo sapiens, UniProt P22607); experiment: FGFR3 wild type mobility shift assay (enzymatic assay); type: biochemical; settings: 75 μM ATP, 50 minutes at 30° C, Caliper EZ reader II
T1 construct: human FGFR3 wild type enzyme (cytoplasmic domain, from Carna Biosciences); purchased Carna Biosciences
Text: FGFR3 Wild Type Mobility Shift Assay (Enzymatic Assay)

[2] = test system: NIH/3T3 cells transfected with control vector; experiment: NIH/3T3 mock cell proliferation assay (counter assay, CellTiter Glo); type: cell-based; settings: Mus musculus, NIH3T3, 72 h, 72-hr incubation, top concentration 30 μM, counter assay for general toxicity, read-out: NIH/3T3 MOCK CTG (IC50)
Method: NIH/3T3 Mock Cell Proliferation Assay
In day 1, 90 μL of cell suspension (NIH/3T3 cells transfected with the same control vector as in the above two proliferation assays) (total 30,000 cells per well in growth medium (DMEM containing 1% Glutamax, 10% FBS and 1% Pen/Strep)) was seeded in a 96-well plate and then incubated overnight at 37° C. and 5% CO2. In day 2, 10 μL of growth medium containing 10-fold stock solution of testing compound was added into cell cultures (9 dose points with 3× serial dilution, starting with 30 μM, 0.3% DMSO final). After 72-hr incubation at 37° C. and 5% CO2, in day 5 a volume of 50 μL CellTiter Glo (CTG) reagent was added into cell-containing 96-well plate and the plate was incubated at room temperature for 10 minutes before RLUs (relative light unit) were measured on a microplate reader with luminescence detection module.

[3] = target: T2, NIH/3T3 cells overexpressing FGFR3 WT-TACC3 fusion protein (Homo sapiens, UniProt P22607); experiment: NIH/3T3 FGFR3 WT-TACC3 cell proliferation assay (CellTiter Glo); type: cell-based; settings: 72-hr incubation, top concentration 10 μM, read-out: NIH/3T3 FGFR3 WT-TACC3 CTG (IC50)
T2 construct: NIH/3T3 FGFR3 WT-TACC3 CTG (IC50); other: 72-hr incubation, CellTiter Glo, top concentration 10 μM; fused on or other part: Q9Y6A5 (Transforming acidic coiled-coil-containing protein 3)
T2 sequence (P22607 whole entry, change not shown, the tested form may be a part): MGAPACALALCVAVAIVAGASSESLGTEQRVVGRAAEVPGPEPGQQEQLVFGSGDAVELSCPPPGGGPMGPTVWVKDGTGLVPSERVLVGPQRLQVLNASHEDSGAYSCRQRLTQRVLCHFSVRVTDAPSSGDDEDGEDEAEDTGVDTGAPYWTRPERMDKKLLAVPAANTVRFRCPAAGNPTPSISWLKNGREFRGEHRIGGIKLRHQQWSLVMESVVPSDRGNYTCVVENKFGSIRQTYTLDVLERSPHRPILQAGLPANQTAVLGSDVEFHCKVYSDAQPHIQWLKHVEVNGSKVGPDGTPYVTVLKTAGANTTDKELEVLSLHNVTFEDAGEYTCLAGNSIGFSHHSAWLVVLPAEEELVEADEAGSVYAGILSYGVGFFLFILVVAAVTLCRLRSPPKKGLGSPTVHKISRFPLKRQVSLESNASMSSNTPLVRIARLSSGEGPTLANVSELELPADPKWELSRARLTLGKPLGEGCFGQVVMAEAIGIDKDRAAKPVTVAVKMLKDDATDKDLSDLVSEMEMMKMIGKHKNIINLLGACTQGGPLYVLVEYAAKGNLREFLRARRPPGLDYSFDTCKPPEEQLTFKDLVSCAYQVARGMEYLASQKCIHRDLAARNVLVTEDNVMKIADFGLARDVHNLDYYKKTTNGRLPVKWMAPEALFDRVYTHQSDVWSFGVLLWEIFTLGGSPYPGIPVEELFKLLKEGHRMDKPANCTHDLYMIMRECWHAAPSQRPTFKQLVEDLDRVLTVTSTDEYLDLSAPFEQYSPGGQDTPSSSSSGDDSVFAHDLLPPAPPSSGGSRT
Method: NIH/3T3 FGFR3 WT-TACC3 Cell Proliferation Assay
In day 1, 90 μL of cell suspension (NIH/3T3 cells overexpressing FGFR3 WT-TACC3 fusion protein) (total 30,000 cells per well in growth medium (DMEM containing 1% Glutamax, 10% FBS and 1% Pen/Strep)) was seeded in a 96-well plate and then incubated overnight at 37° C. and 5% CO2. […] After 72-hr incubation at 37° C. and 5% CO2, in day 5 a volume of 50 μL CellTiter Glo (CTG) reagent was added into cell-containing 96-well plate and the plate was incubated at room temperature for 10 minutes before RLUs (relative light unit) were measured on a microplate reader with luminescence detection module.

T1 sequence (P22607 397-806 limits assumed): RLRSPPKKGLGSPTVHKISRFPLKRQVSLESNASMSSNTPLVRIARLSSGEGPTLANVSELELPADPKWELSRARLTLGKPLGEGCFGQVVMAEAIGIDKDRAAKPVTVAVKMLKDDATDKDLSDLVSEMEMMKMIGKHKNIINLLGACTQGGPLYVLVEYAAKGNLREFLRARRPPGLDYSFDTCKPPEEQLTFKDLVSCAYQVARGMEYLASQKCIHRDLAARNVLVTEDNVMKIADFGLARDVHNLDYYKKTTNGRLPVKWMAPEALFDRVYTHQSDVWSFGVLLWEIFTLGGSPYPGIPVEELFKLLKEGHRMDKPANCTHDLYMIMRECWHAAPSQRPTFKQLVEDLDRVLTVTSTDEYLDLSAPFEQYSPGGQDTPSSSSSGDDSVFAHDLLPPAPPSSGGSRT

CC(Nc1c(-c2nc3cc(C(F)(F)F)c(N4CCOCC4)cc3[nH]2)c(=O)[nH]c2cn(C)nc12)c1ncccn1 (racemic) [Compound 19, (Rac)-2-Methyl-6-(6-morpholino-5-(trifluoromethyl)-1H-benzo[d]imidazol-2-yl)-7-((1-(pyrimidin-2-yl)ethyl)amino)-2H-pyrazolo[4,3-b]pyridin-5(4H)-one]
IC50 [1]: 8.17 nM
IC50 [2]: 3990 nM
GI50 [3]: 21.5 nM

CC(Nc1c(-c2nc3cc(F)c(N4CCOCC4)cc3[nH]2)c(=O)[nH]c2cn(C)nc12)c1ncccn1 (single isomer, unassigned) [Compound 9, (S*)-6-(5-Fluoro-6-morpholino-1H-benzo[d]imidazol-2-yl)-2-methyl-7-((1-(pyrimidin-2-yl)ethyl)amino)-2H-pyrazolo[4,3-b]pyridin-5(4H)-one]
IC50 [1]: 0.618 nM
IC50 [2]: 691 nM
GI50 [3]: 17.1 nM

CC(C)C(Nc1c(-c2nc3cnc(N4CCN(C)CC4)cc3[nH]2)c(=O)[nH]c2cn(C)nc12)c1ncccn1 (single isomer, unassigned) [Compound 23, (S*)-2-methyl-7-((2-methyl-1-(pyrimidin-2-yl)propyl)amino)-6-(6-(4-methylpiperazin-1-yl)-1H-imidazo[4,5-c]pyridin-2-yl)-2H-pyrazolo[4,3-b]pyridin-5(4H)-one]
IC50 [1]: 0.979 nM
IC50 [2]: 266 nM
GI50 [3]: 34.6 nM

CC(Nc1c(-c2nc3ccc(N4CCCCC4)c(F)c3[nH]2)c(=O)[nH]c2cn(C)nc12)c1ncccn1 (single isomer, unassigned) [Compound 15, (S*)-6-(7-fluoro-6-(piperidin-1-yl)-1H-benzo[d]imidazol-2-yl)-2-methyl-7-((1-(pyrimidin-2-yl)ethyl)amino)-2H-pyrazolo[4,3-b]pyridin-5(4H)-one]
IC50 [1]: 1.06 nM
IC50 [2]: 3700 nM
GI50 [3]: 16.9 nM

CCn1cc2[nH]c(=O)c(-c3nc4c(F)cc(N5CCN(C)CC5)cc4[nH]3)c(N[C@@H](C)c3ncccn3)c2n1 [Compound 48, (S)-2-ethyl-6-(4-fluoro-6-(4-methylpiperazin-1-yl)-1H-benzo[d]imidazol-2-yl)-7-((1-(pyrimidin-2-yl)ethyl)amino)-2H-pyrazolo[4,3-b]pyridin-5(4H)-one]
IC50 [1]: 0.738 nM
IC50 [2]: 352 nM
GI50 [3]: 9.04 nM

CCC(Nc1c(-c2nc3ccc(N4CCOCC4)cc3[nH]2)c(=O)[nH]c2cn(C)nc12)c1ncccn1 (single isomer, unassigned) [Compound 39, (S*)-2-methyl-6-(6-morpholino-1H-benzo[d]imidazol-2-yl)-7-((1-(pyrimidin-2-yl)-propyl)amino)-2H-pyrazolo[4,3-b]pyridin-5(4H)-one]
IC50 [1]: 0.881 nM
IC50 [2]: 458 nM
GI50 [3]: 16.3 nM

CCn1cc2[nH]c(=O)c(-c3nc4cc(C)c(N5CCOCC5)cc4[nH]3)c(N[C@@H](C)c3ncccn3)c2n1 [Compound 5, (S)-2-ethyl-6-(5-methyl-6-morpholino-1H-benzo[d]imidazol-2-yl)-7-((1-(pyrimidin-2-yl)-ethyl)amino)-2,4-dihydro-5H-pyrazolo[4,3-b]pyridin-5-one]
IC50 [1]: 1.78 nM
IC50 [2]: 1050 nM
GI50 [3]: 19.7 nM

Cc1cc2nc(-c3c(N[C@@H](C)c4ncccn4)c4nn(C)cc4[nH]c3=O)[nH]c2cc1C(=O)N1CCCC1 [Compound 2]
IC50 [1]: 0.903 nM
IC50 [2]: 998 nM
GI50 [3]: 21.3 nM

C[C@H](Nc1c(-c2nc3ccc(N4CCOC(F)(F)C4)cc3[nH]2)c(=O)[nH]c2cn(C)nc12)c1ncccn1 [Compound 25, (S)-6-(6-(2,2-difluoromorpholino)-1H-benzo[d]imidazol-2-yl)-2-methyl-7-((1-(pyrimidin-2-yl)ethyl)amino)-2H-pyrazolo[4,3-b]pyridin-5(4H)-one]
IC50 [1]: 0.495 nM
IC50 [2]: 1210 nM
GI50 [3]: 22.3 nM

COCC(Nc1c(-c2nc3c(F)cc(N4CCOCC4)cc3[nH]2)c(=O)[nH]c2cn(C)nc12)c1ncccn1 (single isomer, unassigned) [Compound 29, (S*)-6-(4-fluoro-6-morpholino-1H-benzo[d]imidazol-2-yl)-7-((2-methoxy-1-(pyrimidin-2-yl)ethyl)amino)-2-methyl-2H-pyrazolo[4,3-b]pyridin-5(4H)-one]
IC50 [1]: 8.56 nM
IC50 [2]: 1530 nM
GI50 [3]: 98.3 nM

CCn1cc2[nH]c(=O)c(-c3nc4cnc(N5CCOCC5)cc4[nH]3)c(N[C@@H](C)c3ncccn3)c2n1 [Compound 43, (S)-2-ethyl-6-(6-morpholino-1H-imidazo[4,5-c]pyridin-2-yl)-7-((1-(pyrimidin-2-yl)ethyl)-amino)-2H-pyrazolo[4,3-b]pyridin-5(4H)-one]
IC50 [1]: 1.04 nM
IC50 [2]: 415 nM
GI50 [3]: 12.6 nM

C[C@H](Nc1c(-c2nc3ccc(N4CCCCC4)cc3[nH]2)c(=O)[nH]c2cn(C)nc12)c1ccccn1 [Compound 33, (S)-2-methyl-6-(6-(piperidin-1-yl)-1H-benzo[d]imidazol-2-yl)-7-((1-(pyridin-2-yl)ethyl)-amino)-2H-pyrazolo[4,3-b]pyridin-5(4H)-one]
IC50 [1]: 17.5 nM
IC50 [2]: 6530 nM
GI50 [3]: 258 nM

CC(Nc1c(-c2nc3cc(C(F)(F)F)c(N4CCOCC4)cc3[nH]2)c(=O)[nH]c2cn(C)nc12)c1ncccn1 (single isomer, unassigned) [Compound 21, (R*)-2-methyl-6-(6-morpholino-5-(trifluoromethyl)-1H-benzo[d]imidazol-2-yl)-7-((1-(pyrimidin-2-yl)ethyl)amino)-2H-pyrazolo[4,3-b]pyridin-5(4H)-one]
IC50 [1]: 3.71 nM
IC50 [2]: 5900 nM
GI50 [3]: 17.5 nM

CC(Nc1c(-c2nc3ccc(C4CCOCC4)cc3[nH]2)c(=O)[nH]c2cn(C)nc12)c1ncccn1 (single isomer, unassigned) [Compound 22, (S*)-2-methyl-7-((1-(pyrimidin-2-yl)ethyl)amino)-6-(6-(tetrahydro-2H-pyran-4-yl)-1H-benzo[d]imidazol-2-yl)-2H-pyrazolo[4,3-b]pyridin-5(4H)-one]
IC50 [1]: 0.377 nM
IC50 [2]: 1080 nM
GI50 [3]: 18.1 nM

CC(Nc1c(-c2nc3ccc(OC4CCOCC4)cc3[nH]2)c(=O)[nH]c2cn(C)nc12)c1cocn1 (single isomer, unassigned) [Compound 36, (S*)-2-methyl-7-((1-(oxazol-4-yl)ethyl)amino)-6-(6-((tetrahydro-2H-pyran-4-yl)oxy)-1H-benzo[d]imidazol-2-yl)-2H-pyrazolo[4,3-b]pyridin-5(4H)-one]
IC50 [1]: 0.839 nM
IC50 [2]: 753 nM
GI50 [3]: 49.6 nM

CC(Nc1c(-c2nc3ccc(N4CCN(CC(F)(F)F)CC4)cc3[nH]2)c(=O)[nH]c2cn(C)nc12)c1ncccn1 (single isomer, unassigned) [Compound 26, (S*)-2-methyl-7-((1-(pyrimidin-2-yl)ethyl)amino)-6-(6-(4-(2,2,2-trifluoroethyl)piperazin-1-yl)-1H-benzo[d]imidazol-2-yl)-2H-pyrazolo[4,3-b]pyridin-5(4H)-one]
IC50 [1]: 0.637 nM
IC50 [2]: 768 nM
GI50 [3]: 5.96 nM

C[C@H](Nc1c(-c2nc3ccc(N4CCN(C)CC4)cc3[nH]2)c(=O)[nH]c2cn(C)nc12)c1ccccc1 [Compound 18, (S)-2-Methyl-6-(6-(4-methylpiperazin-1-yl)-1H-benzo[d]imidazol-2-yl)-7-((1-phenylethyl)amino)-2H-pyrazolo[4,3-b]pyridin-5(4H)-one]
IC50 [1]: 2.02 nM
IC50 [2]: 680 nM
GI50 [3]: 74.3 nM

CC(Nc1c(-c2nc3ccc(N4CCCCC4)cc3[nH]2)c(=O)[nH]c2cn(C)nc12)c1ncccn1 (single isomer, unassigned) [Compound 34, (S*)-2-methyl-6-(6-(piperidin-1-yl)-1H-benzo[d]imidazol-2-yl)-7-((1-(pyrimidin-2-yl)-ethyl)amino)-2H-pyrazolo[4,3-b]pyridin-5(4H)-one]
IC50 [1]: 1.22 nM
IC50 [2]: 734 nM
GI50 [3]: 23.3 nM

C[C@H](Nc1c(-c2nc3ccc(N4CCO[C@H](C(F)(F)F)C4)cc3[nH]2)c(=O)[nH]c2cn(C)nc12)c1ncccn1 (relative stereo) [Compound 8, 2-Methyl-7-(((S*)-1-(pyrimidin-2-yl)ethyl)amino)-6-(6-((S*)-2-(trifluoromethyl)-morpholino)-1H-benzo[d]imidazol-2-yl)-2H-pyrazolo[4,3-b]pyridin-5(4H)-one]
IC50 [1]: 0.542 nM
IC50 [2]: 444 nM
GI50 [3]: 6.78 nM
